Values quoted from earlier work, collected in patent publication US20110123555A1, “PREPARATION AND UTILITY OF CCR5 INHIBITORS” (AUSPEX PHARMACEUTICALS, INC., priority 2006, published 2011).

System: 200 clinically-derived pseudoviruses
Conditions: half of which are derived from viruses resistant to existing drug classes

## Cc1nnc(C(C)C)n1C1CC2CCC(C1)N2CCC(NC(=O)C1CCC(F)(F)CC1)c1ccccc1 (stereo not shown) [Maraviroc]
  active in vitro against clinically-derived pseudoviruses: active
